# Experimental data: patent publication US20170174734A1, “DR6 Receptor Mediates the Leukemia Differentiation Activity of Angiocidin: A Potent Anti-Tumor Peptide” (Temple University-Of The Commonwealth System of Higher …, priority 2014, published 2017)
# B1: Angiocidin (ligand, UniProt P55036 1-377, looked up)
# chain: MVLESTMVCVDNSEYMRNGDFLPTRLQAQQDAVNIVCHSKTRSNPENNVGLITLANDCEVLTTLTPDTGRILSKLHTVQPKGKITFCTGIRVAHLALKHRQGKNHKMRIIAFVGSPVEDNEKDLVKLAKRLKKEKVNVDIINFGEEEVNTEKLTAFVNTLNGKDGTGSHLVTVPPGPSLADALISSPILAGEGGAMLGLGASDFEFGVDPSADPELALALRVSMEEQRQRQEEEARRAAAASAAEAGIATTGTEDSDDALLKMTISQQEFGRTGLPDLSSMTEEEQIAYAMQMSLQGAEFGQAESADIDASSAMDTSEPAKEEDDYDVMQDPEFLQSVLENLPGVDPNNEAIRNAMGSLASQATKDGKKDKKEEDKK
# modifications: Alexa Fluor 488 label (flow cytometry) or biotin label (ELISA, blot); sites not stated; also used unlabeled as competitor
# notes: Labelled and unlabelled preparations are kept as one molecule
# B2: 5 mer (ALKHR peptide) (peptide)
# peptide: ALKHR
# notes: Five-residue peptide from angiocidin; also called Angio-pep; 5 mer peptide
# B3: DR6-Fc: DR6 extracellular-Fc chimeric recombinant protein (protein)
# chain: QPEQKASNLIGTYRHVDRATGQVLTCDKCPAGTYVSEHCTNTSLRVCSSCPVGTFTRHENGIEKCHDCSQPCPWPMIEKLPCAALTDRECTCPPGMFQSNATCAPHTVCPVGWGVRKKGTETEDVRCKQCARGTFSDVPSSVMKCKAYTDCLSQNLVVIKPGTKETDNVCGTLPSFSSSTSPSPGTAIFPRPEHMETHEVPSSTYVPKGMNSTESNSSASVRPKVLSSIQEGTVPDNTSSARGKEDVNKTLPNLQVVNHQQGPHHRHILKLLPSMEATGGEKSSTPIKGPKRGHPRQNLHKHFDINEH
# modifications: left off: a dimerising Fc or GST
# notes: DR6 extracellular-Fc chimeric recombinant protein
# What was measured:
# [1] = target: T1, DR6 extracellular domain-FC chimera (Homo sapiens, UniProt O75509); test: ELISA binding of biotinylated angiocidin to plate-coated DR6 extracellular-Fc chimeric recombinant protein; conditions: for Blocking of binding of biotinylated angiocidin to DR6: 1 μg/ml biotinylated angiocidin, 50 μg/ml 5 mer, 10 μg/ml anti-DR6 IgG or 50 μg/ml unlabeled angiocidin
# T1 construct: wells of a microtiter plate were coated with 100 ng of a DR6 extracellular-Fc chimeric recombinant protein overnight
# T1 sequence (O75509 42-349 limits assumed): B3 chain
# Experimental: (§1) The next experiment was performed to characterize the binding of DR6 with angiocidin. Briefly, wells of a microtiter plate were coated with 100 ng of a DR6 extracellular-Fc chimeric recombinant protein overnight. Wells were then washed in PBS and blocked with 1% BSA. Blocked wells were incubated with shaking with 200 μl of PBS containing various concentrations of biotinylated angiocidin for one hour. Wells were than washed and incubated with shaking with a 1:10,000 dilution of a 1 mg/ml solution of streptavidin-HRP in PBS. Wells were washed 3 times in PBS and bound streptavidin HRP was detected by incubation of the wells with 100 μl of 3,3′,5,5′-tetramethylbenzidine (TMB) with shaking for 5 min. Reactions were stopped by the addition of 50 μl of 1 M HCl and the color read in an ELISA reader at 450 nm.
# (§2) The next experiment was performed to further characterize the binding between DR6 and angiocidin. It was observed that the binding of angiocidin to DR6 was blocked with anti-DR6 IgG, 5 mer peptide, and unlabeled angiocidin. Wells contained either 1 μg/ml of biotinylated angiocidin alone or 50 μg/ml 5 mer, 10 μg/ml of anti-DR6 IgG or 50 μg/ml unlabeled angiocidin.
# [2] = system: three different leukemia cell lines; test: Cytokine upregulation in three leukemia cell lines; type: cell-based
# Experimental: Experiments were also performed comparing the leukemia cell differentiating activity of the 5 mer, the 20 mer and angiocidin.
# THP-1 cells [3] = test: Differentiation marker expression (CD14, CD54, CD36) in THP-1 cells, flow cytometry; type: cell-based; conditions: for Leukemia cell differentiating activity, comparison of 5 mer, 20 mer and angiocidin / Upregulation of CD54 in THP-1 leukemia cells: FIGS. 8-11; for Upregulation of CD54 in THP-1 cells: after 24 hours incubation, FIG. 8
# Experimental: FIG. 10 is an image showing the comparison between angiocidin, the 5 mer, and a 20 mer (F86-H105) […]; SEQ ID NO: 2 on the expression of CD14 and CD54. Briefly, THP-1 cells were grown in the presence of various concentrations of peptide overnight and then the cells were assayed by flow cytometry for expression of CD14 and CD54.
# FIG. 11 is an image showing the comparison between the 20 mer, 5 mer and angiocidin on the expression of CD14 and CD54 up-regulation in THP-1 cells and two primary leukemia cells. Cells were treated with peptide at 10 ug/ml for 12 hours and CD14 and CD54 were measured by flow cytometry.
# THP-1 cells were cultured in RPMI media for 24 hours containing no peptides or angiocidin or 2, 10 μg/ml of either angiocidin, 5 mer, peptide or a control peptide, r5 mer having the reverse sequence of the 5 mer. Marker expression was measured by flow cytometry.
# THP-1 cells [4] = test: Binding of Alexa Fluor 488 labeled angiocidin to THP-1 cells, flow cytometry
# Experimental: Experiments were performed to evaluate the interaction between DR-6 and angiocidin. […] Briefly, THP-1 cells were plated in 6 well dishes in serum-free media. Cells were untreated or treated for 30 min at 37° with either 2.5 μg/ml of Angiocidin labeled with Alexa Fluor 488 (Angio-488), Angio-448+10 μg/ml control rabbit IgG, Angio-488+10 μg/ml rabbit Anti-DR6 IgG, Angio-488+10 μg/ml unlabeled Angiocidin. Cells were washed twice in PBS and the percent positive Angio-488 measured by flow cytometry.
# [5] = target: T2, DR6 in whole extracts of THP-1 cells (Homo sapiens, UniProt O75509); test: Blot overlay of biotinylated angiocidin on SDS extracts of THP-1 cells; type: binding; conditions: 0.1 mg/ml biotinylated angiocidin, one hour
# T2 construct: SDS detergent extracts of THP-1 cells were separated on SDS-PAGE and blotted onto PVD membranes; endogenous in cells; host or cells: THP-1 cells
# T2 sequence (O75509 42-655): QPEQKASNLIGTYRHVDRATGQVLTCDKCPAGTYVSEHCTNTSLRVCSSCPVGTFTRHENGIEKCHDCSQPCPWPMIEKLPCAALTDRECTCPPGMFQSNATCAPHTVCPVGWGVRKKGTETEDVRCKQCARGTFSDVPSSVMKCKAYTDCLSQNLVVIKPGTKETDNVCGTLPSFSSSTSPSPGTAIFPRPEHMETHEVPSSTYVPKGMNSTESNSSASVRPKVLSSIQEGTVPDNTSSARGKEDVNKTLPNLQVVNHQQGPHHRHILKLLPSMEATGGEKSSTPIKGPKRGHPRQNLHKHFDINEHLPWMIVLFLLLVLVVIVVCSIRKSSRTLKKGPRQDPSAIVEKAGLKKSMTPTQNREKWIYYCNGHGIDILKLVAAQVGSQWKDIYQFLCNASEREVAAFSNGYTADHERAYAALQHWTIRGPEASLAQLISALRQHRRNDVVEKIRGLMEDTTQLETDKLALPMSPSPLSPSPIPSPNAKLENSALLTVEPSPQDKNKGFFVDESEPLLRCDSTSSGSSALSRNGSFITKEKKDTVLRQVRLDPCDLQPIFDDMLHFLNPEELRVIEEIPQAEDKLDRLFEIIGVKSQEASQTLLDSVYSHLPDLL
# Experimental: Briefly, SDS detergent extracts of THP-1 cells were separated on SDS-PAGE and blotted onto PVD membranes. Membranes were washed in tris-buffered saline containing 0.1% Tween 20 detergent (TBS-T) and 1% BSA and incubated with 0.1 mg/ml of biotinylated angiocidin in the presence or absence of 10 μg/ml rabbit Anti-DR6 antibody. After incubation for one hour membranes were washed in TBS-T and incubated with 1:10,000 dilution of a 1 mg/ml solution of streptavidin HRP in PBS for 30 min. Membranes were then washed, treated with a chemiluminescent substrate for HRP and developed for chemiluminescence using X-ray film. In the panel on the right, recombinant DR6-Fc was used as the positive control.
# THP-I leukemia cells = test: Blocking DR6 on THP-I leukemia cells: effect on the differentiating activity of angiocidin; type: cell-based; conditions: mediated by DR6
# Source text: Additionally, the DR6 binding domain of angiocidin is located in a 5 amino acid sequence (ALKHR; SEQ ID NO: 1) present near the N-terminal domain of angiocidin. Accordingly, the 5 mer (ALKHR; SEQ ID NO: 1) is a potentially non-toxic alternative treatment of AML
# death receptor-6 (DR6) = target: T3, death receptor-6 (DR6) (Homo sapiens, UniProt O75509); test: Binding strength of DR6 for angiocidin compared with previously reported binding proteins
# T3 sequence (O75509 42-655): T2 sequence (O75509 42-655)
# [6] = target: T4, DR6 extracellular-Fc chimeric recombinant protein (UniProt O75509 42-349, limits assumed); test: not stated (opening statement of Example 1)
# T4 construct: extracellular domain; also called DR6 extracellular domain-FC chimera; DR6-Fc; not shown: Fc part
# T4 sequence (looked up): B3 chain
# [7] = target: T4, DR6 extracellular-Fc chimeric …; test: competition ELISA on coated DR6 extracellular domain-Fc, 50 ug/ml 5 mer against 1 ug/ml biotinylated angiocidin
# Experimental: as §1, with “nm. It was observed that angiocidin binds the extracellular domain of DR6 (DR6 extracellular domain-FC chimera) in vitro (FIG. 2).” for “nm.”
# as §2
# THP-1 cells [8] = test: Angiocidin-mediated up-regulation of CD14 in THP-1 cells, flow cytometry; type: cell-based; conditions: 2.5 μg/ml Angiocidin plus 10 μg/ml rabbit anti-DR6 IgG or 0.10 μg/ml DR6-Fc, 24 hours, 1% fetal calf serum
# Experimental: THP-1 cells were grown for 24 hours in RPMI containing 1% fetal calf serum (NT) or containing the following: 2.5 μg/ml Angiocidin, 0.10 μg/ml DR6-Fc, 2.5 μg/ml Angiocidin plus 0.10 μg/ml, DR6-Fc, 10 μg/ml rabbit IgG, 2.5 μg/ml Angiocidin plus 10 μg/ml rabbit IgG, 10 μg/ml rabbit anti-DR6 IgG, 2.5 μg/ml Angiocidin plus 10 μg/ml rabbit anti-DR6 IgG. Percent CD14 positive cells were measured by flow cytometry.
molecule,measurement,setting,value
ALKHR [5 mer],Blocking of binding of biotinylated angiocidin to DR6,[1],blocked
same,Upregulation of cytokine panel,[2],upregulate a similar panel of cytokines
same,"Leukemia cell differentiating activity, comparison of 5 mer, 20 mer and angiocidin",THP-1 cells [3],nearly identical leukemia cell differentiating activities
same,Upregulation of CD54 in THP-1 leukemia cells,THP-1 cells [3],upregulate CD54
same,"Differentiation activity measured by upregulation of CD14, CD54, CD36","THP-1 cells [3]; THP-1 cells, RPMI, 24 hours, 2, 10 μg/ml",mimics the differentiation activity of angiocidin
same,Upregulation of CD54 in THP-1 cells,THP-1 cells [3],upregulate CD54
Angio-488: Angiocidin labeled with Alexa Fluor 488 [reference compound],Affinity for cell bound DR6 after labeling with Alexa Fluor 488,THP-1 cells [4]; inferred from competition by unlabeled angiocidin,did not alter its affinity for cell bound DR6
"FCTGIRVAHLALKHRQGKNH [20 mer, 20 mer peptide of the anti-tumor domain of angiocidin]",Upregulation of cytokine panel,[2],upregulate a similar panel of cytokines
same,"Leukemia cell differentiating activity, comparison of 5 mer, 20 mer and angiocidin",THP-1 cells [3],nearly identical leukemia cell differentiating activities
same,Upregulation of CD54 in THP-1 leukemia cells,THP-1 cells [3],upregulate CD54
"angiocidin: protein originally isolated from lung carcinoma, receptor for thrombospondin-1, inhibitor of angiogenesis and tumor cell proliferation",Binding of biotinylated angiocidin to the extracellular domain of DR6,"[1]; 100 ng DR6-Fc coated, various concentrations, one hour, read at 450 nm",binds the extracellular domain of DR6
same,Blocking of binding of biotinylated angiocidin to DR6,[1],blocked
same,Binding of angiocidin to DR6 in whole extracts of THP-1 cells,[5],binds to DR6 in whole extracts of THP-1 cells
same,Differentiating activity on THP-I leukemia cells,THP-I leukemia cells,transforms THP-I leukemia cells into normal macrophage-like cells
same,Inhibition of binding of Angio-488 to THP-1 cells (percent positive Angio-488),"THP-1 cells [4]; 2.5 μg/ml Angio-488 plus 10 μg/ml competitor, 30 min at 37°, serum-free media",competed with the binding of Angio-488
same,Upregulation of cytokine panel,[2],upregulate a similar panel of cytokines
same,"Leukemia cell differentiating activity, comparison of 5 mer, 20 mer and angiocidin",THP-1 cells [3],nearly identical leukemia cell differentiating activities
same,Upregulation of CD54 in THP-1 leukemia cells,THP-1 cells [3],upregulate CD54
same,Upregulation of CD54 in THP-1 cells,THP-1 cells [3],upregulate CD54
same,Binding strength of DR6 for angiocidin relative to other reported binding proteins and peptides,death receptor-6 (DR6),more than 100 times
B1,fold stronger binding than the other binding proteins and peptides previously reported for angiocidin,[6],> 100 times
B2,binding result,[7],binds
B3,Inhibition of angiocidin-mediated upregulation of CD14 (percent CD14 positive cells),THP-1 cells [8],inhibit the angiocidin-mediated upregulation of CD14
